{"source": "patent US20090215763A1", "about": "“SUBSTITUTED BENZOXAZINONES” (P&H Therapeutics, Inc., priority 2008, published 2009)", "test_system": "spontaneously hypertensive rat (SHR)", "assay": "In vivo model study: telemetry cardiovascular assessment in SHR rats", "settings": "male SHR rats, intraperitoneal administration, radiotelemetry, preliminary evaluation", "text": "The objective of this study is to define the magnitude, time course and dose/concentration response relationship of compound 13 antihypertensive effects when administered intraperitoneally (IP) to male SHR rats maintained on standard and low salt diets. In Vivo Phase I: Three male SHR rats, 7-10 weeks of age weighing 150-300 g, will be instrumented with radiotelemetry transmitters. Following an approximate 2-week recovery period, animals will receive a single intraperitoneal dose of test article. Cardiovascular data will be collected for approximately 24 hours following dosing. Cardiovascular data is collected from non-restrained animals implanted with radiotelemetry devices. 1. SHR rats, 7-10 weeks of age weighing 150-300 g, are implanted with radiotelemetry devices. Transmitters are placed subcutaneously in the ventral abdominal region and blood pressure is monitored from the femoral artery. Animals will be allowed to recover at least 10 days prior to data collection. 5. At least 1 hour of baseline is collected from undisturbed animals prior to each dosing. Following test article administration, approximately 24 hours of data is collected from undisturbed animals to assess hemodynamic effects."}
{"smiles": "CCc1nc(N)nc(N)c1-c1ccc2c(c1)N(CCNC(=O)OC)C(=O)[C@](C)(c1cc(F)cc(F)c1)O2", "note": "[Compound 13]", "values": [{"measurement": "blood pressure reduction in SHR (antihypertensive effect)", "result": "blood pressure reduction"}]}
